Patent publication US20090047223A1, “Improvements in or Related to Organic Compoounds” (GIVAUDAN SA, priority 2005, published 2009)
Structures can show the parent of a compound that is named as a salt. Where two headings read alike, the source gives them in different places.

How the values were obtained:
[1] = Reduction of methanethiol (MeSH) in headspace, phosphate buffer pH 7, GC; settings: for % reduction of MeSH in the headspace: MeSH 100 μM, phosphate buffer pH 7, 1 h; for reactivity towards MeSH / ability to bind MeSH (in words): aqueous environment
Protocol: (§1) The compounds listed in Table 1 are dissolved to a final concentration of 100 μM, 200 μM and 500 μM in 1 ml of phosphate buffer at pH 7 in a closed GC-headspace vial. MeSH is added to a final concentration of 100 μM and the mixture is equilibrated for 1 h. Samples are heated to 75° C. and 1 ml of the headspace above the reaction mixture is injected onto a column suitable for separation of sulphur compounds (SPW1-sulfur, Supelco). The temperature program is set to 1 min initial temperature at 50° C., heating at a rate of 10° C./min to 100° C. and further heating at 20° C./min to 200° C. The headspace level of MeSH is compared to a blank sample, i.e. a sample without the active compound.

[2] = Reduction of methanethiol (MeSH) in saliva, headspace GC; settings: compound 500 μM, MeSH 200 μM
Protocol: as §1
The compounds given in Table 3 are dissolved in GC-headspace vials in saliva donations pooled form four donors at a concentration of 500 μM. After a conditioning period of 1 and 2.5 h respectively, MeSH is added at a concentration of 200 μM, and 1 hour later MeSH level in the headspace is determined as described in Example 8.

[3] = Reduction of allyl mercaptan, monobromobimane fluorescence; settings: 200 μM allyl mercaptan-solution, pH 7, 15 min
Protocol: The compounds given in Table 2 are dissolved in DMSO to a final concentration of 100 mM and serially diluted in the same solvent. Aliquots of the solutions of different active compounds (2.5 μl) are distributed to individual wells of a microtiter plate. 100 μl of a 200 μM allyl mercaptan-solution (in 50 mM phosphate buffer, pH 7) are added to each well and the plates are immediately sealed. After 15 min of incubation, the unreacted allyl mercaptan is derivatised by adding to each well of the microtiter plate 100 μl of a monobromobimane (obtained from Fluka, Buchs, Switzerland) stock solution (0.5 mM in 1 M NaCO3, pH 8.8). After 10 min the fluorescence in the wells of the microtiter plates is measured on a Flex-station (Molecular devices, Sunnyvale, Calif., USA) with an excitation wavelength of 385 nm and an emission wavelength of 480 nm. After the fluorescence determination, from all the wells the blank value containing only buffer and DMSO is subtracted. The fluorescence of control wells with allyl mercaptan and DMSO only is then compared to the fluorescence in wells containing potential allyl mercaptan trapping agents (compound 1 to 5) to calculate the inhibition in percent.

[4] = 500 μM, pH 7
Protocol: Samples of 0.50 ml are withdrawn at the indicated time intervals and extracted with MTBE (0.50 ml). The amount of released ethyl vanillin is determined by quantitative GC-analysis.

[5] = after 2½ h conditioning in pooled saliva
[6] = after 1 h conditioning in pooled saliva

| Compound | % reduction of MeSH in the headspace ([1]; compound 100 μM) [%] | % reduction of MeSH in the headspace ([1]; compound 500 μM) [%] | Reduction of MeSH (%) [2, 5] [%] | Reduction of MeSH (%) [2, 6] [%] | % reduction of allyl mercaptan ([3]; test concentration 31.25 μM) [%] | % reduction of allyl mercaptan ([3]; test concentration 62.5 μM) [%] | % reduction of allyl mercaptan ([3]; test concentration 125 μM) [%] | % reduction of allyl mercaptan ([3]; test concentration 250 μM) [%] | % reduction of allyl mercaptan ([3]; test concentration 500 μM) [%] | % reduction of allyl mercaptan ([3]; test concentration 1000 μM) [%] | % reduction of MeSH in the headspace ([1]; compound 200 μM) [%] | reactivity towards MeSH / ability to bind MeSH (in words) [1] | % of theory (released ethyl vanillin) ([4]; 30 min) [%] | conc. of released ethy vanillin ([4]; 30 min) [µM] | % of theory (released ethyl vanillin) ([4]; 60 min) [%] | conc. of released ethy vanillin ([4]; 60 min) [µM] | % of theory (released ethyl vanillin) ([4]; 120 min) [%] | conc. of released ethy vanillin ([4]; 120 min) [µM] |
| --- | --- | --- | --- | --- | --- | --- | --- | --- | --- | --- | --- | --- | --- | --- | --- | --- | --- | --- |
| CCOC(=O)/C=C/C(=O)OCC=Cc1ccccc1 [Compound 6, Cinnamyl Ethyl Fumarate] | 45.8 | 85 |  |  |  |  |  |  |  |  |  |  |  |  |  |  |  |  |
| CC1CCC(C(C)C)C(OC(=O)/C=C/C(=O)OCC(O)CO)C1 (stereo not shown) [Compound 1, 2,3-Dihydroxypropyl 2-isopropyl-5-methylcyclohexyl fumarate] | 81.5 | >90 | 40.5 | 72.7 | 0.1 | 9.9 | 22.5 | 43.2 | 68.8 | 86.0 | 73.7 |  |  |  |  |  |  |  |
| CC1CCC(C(C)C)C(OC(=O)/C=C/C(=O)O)C1 (stereo not shown) [B, reference compound] | 11.9 | 0 |  |  |  |  |  |  |  |  | 1.7 | low reactivity |  |  |  |  |  |  |
| CCOC(=O)/C=C/C(=O)Oc1ccccc1C(=O)OC [Compound 4, Methyl 2-((E)-3-(ethoxycarbonyl)acryloyloxy)benzoate] | >90 | >90 | 74.3 | 28.1 | 14.4 | 32.3 | 67.6 | 95.3 | 99.8 | 100.0 | >92 |  |  |  |  |  |  |  |
| CC1CCC(C(C)C)C(OC(=O)/C=C/C(=O)OCC(O)C(O)C(O)C(O)CO)C1 (stereo not shown) [Compound 5, 2,3,4,5,6-Pentahydroxyhexyl 2-isopropyl-5-methylcyclohexyl fumarate] | 71.6 | >90 | 75.1 | 48.2 | 1.0 | 8.1 | 19.3 | 38.4 | 64.4 | 89.3 |  |  |  |  |  |  |  |  |
| CCCCCCOC(=O)/C=C/C(=O)OCCCCCC [Dihexyl fumarate (A), Dihexyl fumarate, reference compound] | 4.3 | 10.9 |  |  |  |  |  |  |  |  | 1.9 | very low reactivity |  |  |  |  |  |  |
| CCOC(=O)/C=C/C(=O)Oc1c(C)occc1=O [Compound 2, Ethyl 2-methyl-4-oxo-4H-pyran-3-yl fumarate] | >92 | >90 | 32.5 | 75.9 | 11.1 | 31.9 | 65.3 | 98.4 | 100.0 | 100.0 | >92 |  |  |  |  |  |  |  |
| CCOC(=O)/C=C/C(=O)Oc1ccc(C=O)cc1OCC [Compound 3, 2-Ethoxy-4-formylphenyl ethyl fumarate] | >90 | >90 | 73.3 | 36.2 | 12.8 | 32.7 | 74.5 | 99.8 | 100.0 | 100.0 | >92 |  | 38 | 192 | 47 | 235 | 62 | 310 |
| CC/C=C\CCOC(=O)/C=C/C(=O)OCC [Compound 7, Ethyl (Z)-hex-3-enyl fumarate] | 33 | 54.1 |  |  |  |  |  |  |  |  | 39.2 |  |  |  |  |  |  |  |
